Results published in the NIST ThermoML archive (doi:10.1016/j.jct.2014.07.018).
“And” between values parts separate entries of the source, which are not always exact repeats. Equal values may be shown once.

Experiment: molar heat capacity at constant pressure
Settings: 101.33 kPa, Vacuum adiabatic calorimetry

CCC[n+]1ccn(C)c1.[Br-] [1-methyl-3-propylimidazolium bromide]
molar heat capacity at constant pressure
Settings | Crystal 2 | Glass
5 K | 0.294 J/K/mol | 1 J/K/mol
5.52 K | 0.401 J/K/mol | –
5.87 K | 0.492 J/K/mol | –
6.21 K | 0.596 J/K/mol | –
6.59 K | 0.729 J/K/mol | –
6.61 K | – | 2.26 J/K/mol
6.94 K | – | 2.56 J/K/mol
6.97 K | 0.883 J/K/mol | –
7.33 K | – | 2.953 J/K/mol
7.35 K | 1.057 J/K/mol | –
7.73 K | 1.253 J/K/mol | –
7.74 K | – | 3.376 J/K/mol
8.12 K | 1.472 J/K/mol | –
8.14 K | – | 3.817 J/K/mol
8.51 K | 1.709 J/K/mol | –
8.55 K | – | 4.303 J/K/mol
8.89 K | 1.969 J/K/mol | –
8.96 K | – | 4.799 J/K/mol
9.28 K | 2.25 J/K/mol | –
9.37 K | – | 5.312 J/K/mol
9.68 K | 2.56 J/K/mol | –
9.78 K | – | 5.854 J/K/mol
10 K | 2.83 J/K/mol | 6.16 J/K/mol
10.07 K | 2.896 J/K/mol | –
10.19 K | – | 6.42 J/K/mol
10.57 K | 3.349 J/K/mol | –
10.71 K | – | 7.156 J/K/mol
11.17 K | 3.934 J/K/mol | –
11.34 K | – | 8.069 J/K/mol
11.78 K | 4.563 J/K/mol | –
11.96 K | – | 9.014 J/K/mol
12.39 K | 5.251 J/K/mol | –
12.59 K | – | 10.01 J/K/mol
12.76 K | – | 10.27 J/K/mol
13 K | 5.972 J/K/mol | –
13.23 K | – | 11.02 J/K/mol
13.27 K | – | 11.09 J/K/mol
13.62 K | 6.746 J/K/mol | –
13.86 K | – | 12.06 J/K/mol
13.9 K | – | 12.12 J/K/mol
14.24 K | 7.548 J/K/mol | –
14.5 K | – | 13.11 J/K/mol
14.53 K | – | 13.18 J/K/mol
14.85 K | 8.382 J/K/mol | –
15 K | 8.58 J/K/mol | 13.96 J/K/mol
15.17 K | – | 14.27 J/K/mol
15.58 K | 9.404 J/K/mol | –
15.96 K | – | 15.61 J/K/mol
16.42 K | 10.63 J/K/mol | –
16.9 K | – | 17.24 J/K/mol
17.26 K | 11.9 J/K/mol | –
17.83 K | – | 18.9 J/K/mol
18.09 K | 13.21 J/K/mol | –
18.77 K | – | 20.57 J/K/mol
18.93 K | 14.56 J/K/mol | –
19.7 K | – | 22.25 J/K/mol
19.77 K | 15.94 J/K/mol | –
20 K | 16.31 J/K/mol | 22.8 J/K/mol
20.91 K | 17.83 J/K/mol | –
20.95 K | – | 24.53 J/K/mol
22.33 K | 20.27 J/K/mol | –
22.51 K | – | 27.36 J/K/mol
23.77 K | 22.77 J/K/mol | –
24.09 K | – | 30.19 J/K/mol
25 K | 24.9 J/K/mol | 31.8 J/K/mol
25.2 K | 25.25 J/K/mol | –
25.66 K | – | 32.96 J/K/mol
26.63 K | 27.75 J/K/mol | –
27.23 K | – | 35.71 J/K/mol
28.07 K | 30.25 J/K/mol | –
28.81 K | – | 38.42 J/K/mol
29.52 K | 32.71 J/K/mol | –
30 K | 33.56 J/K/mol | 40.46 J/K/mol
30.4 K | – | 41.1 J/K/mol
31.17 K | 35.56 J/K/mol | –
32.13 K | – | 43.97 J/K/mol
33.03 K | 38.66 J/K/mol | –
34.01 K | – | 46.95 J/K/mol
34.89 K | 41.68 J/K/mol | –
35 K | 41.84 J/K/mol | 48.45 J/K/mol
35.9 K | – | 49.88 J/K/mol
36.76 K | 44.57 J/K/mol | –
37.79 K | – | 52.63 J/K/mol
38.63 K | 47.38 J/K/mol | –
39.67 K | – | 55.27 J/K/mol
40 K | 49.44 J/K/mol | 55.78 J/K/mol
40.49 K | 50.15 J/K/mol | –
41.76 K | – | 58.17 J/K/mol
42.5 K | 53 J/K/mol | –
44.05 K | – | 61.22 J/K/mol
44.67 K | 55.99 J/K/mol | –
45 K | 56.45 J/K/mol | 62.48 J/K/mol
46.42 K | – | 64.28 J/K/mol
46.85 K | 58.9 J/K/mol | –
48.69 K | – | 67.11 J/K/mol
49.03 K | 61.73 J/K/mol | –
50 K | 62.88 J/K/mol | 68.62 J/K/mol
50.77 K | – | 69.55 J/K/mol
51.21 K | 64.4 J/K/mol | –
52.86 K | – | 71.87 J/K/mol
53.39 K | 66.92 J/K/mol | –
54.95 K | – | 74.14 J/K/mol
55.57 K | 69.38 J/K/mol | –
57.04 K | – | 76.42 J/K/mol
57.75 K | 71.78 J/K/mol | –
59.13 K | – | 78.63 J/K/mol
59.93 K | 74.14 J/K/mol | –
60 K | 74.22 J/K/mol | 79.52 J/K/mol
61.23 K | – | 80.83 J/K/mol
62.13 K | 76.42 J/K/mol | –
63.32 K | – | 82.92 J/K/mol
64.33 K | 78.63 J/K/mol | –
65.42 K | – | 84.99 J/K/mol
66.53 K | 80.71 J/K/mol | –
67.53 K | – | 86.98 J/K/mol
68.72 K | 82.68 J/K/mol | –
69.62 K | – | 88.87 J/K/mol
70 K | 83.84 J/K/mol | 89.28 J/K/mol
70.92 K | 84.56 J/K/mol | –
71.72 K | – | 90.74 J/K/mol
73.18 K | 86.57 J/K/mol | –
73.83 K | – | 92.54 J/K/mol
75.5 K | 88.58 J/K/mol | –
75.93 K | – | 94.45 J/K/mol
77.81 K | 90.59 J/K/mol | –
78.04 K | – | 96.34 J/K/mol
78.3 K | 90.96 J/K/mol | –
78.68 K | 91.25 J/K/mol | –
79.18 K | – | 97.3 J/K/mol
80 K | 92.3 J/K/mol | 97.87 J/K/mol
80.13 K | 92.58 J/K/mol | –
80.17 K | – | 98.2 J/K/mol
80.36 K | 92.62 J/K/mol | –
80.94 K | 93.01 J/K/mol | –
81.21 K | – | 98.9 J/K/mol
82.27 K | 94.04 J/K/mol | –
82.29 K | – | 99.76 J/K/mol
82.46 K | 94.26 J/K/mol | –
82.87 K | 94.47 J/K/mol | –
83.14 K | – | 100.3 J/K/mol
84.2 K | 95.47 J/K/mol | –
84.42 K | – | 101.2 J/K/mol
84.8 K | 95.84 J/K/mol and 95.9 J/K/mol | –
85.07 K | – | 101.7 J/K/mol
86.13 K | 96.85 J/K/mol | –
86.73 K | 97.28 J/K/mol | –
87.01 K | – | 103.1 J/K/mol
88.08 K | 98.24 J/K/mol | –
88.67 K | 98.67 J/K/mol | –
88.94 K | – | 104.6 J/K/mol
90 K | 99.64 J/K/mol | 105.4 J/K/mol
90.04 K | 99.66 J/K/mol | –
90.6 K | 100 J/K/mol | –
90.88 K | – | 106 J/K/mol
92.01 K | 101.1 J/K/mol | –
92.54 K | 101.4 J/K/mol | –
92.82 K | – | 107.4 J/K/mol
93.99 K | 102.5 J/K/mol | –
94.48 K | 102.8 J/K/mol | –
94.77 K | – | 108.7 J/K/mol
95.98 K | 103.8 J/K/mol | –
96.43 K | 104.1 J/K/mol | –
96.72 K | – | 110.1 J/K/mol
97.97 K | 105.1 J/K/mol | –
98.38 K | 105.4 J/K/mol | –
98.66 K | – | 111.4 J/K/mol
99.98 K | 106.5 J/K/mol | –
100 K | 106.4 J/K/mol | 112.3 J/K/mol
100.34 K | 106.7 J/K/mol | –
100.62 K | – | 112.7 J/K/mol
101.99 K | 107.7 J/K/mol | –
102.29 K | 107.9 J/K/mol | –
102.57 K | – | 114 J/K/mol
104.01 K | 109 J/K/mol | –
104.25 K | 109.1 J/K/mol | –
104.53 K | – | 115.3 J/K/mol
106.04 K | 110.2 J/K/mol | –
106.21 K | 110.3 J/K/mol | –
106.49 K | – | 116.5 J/K/mol
108.08 K | 111.5 J/K/mol | –
108.17 K | 111.6 J/K/mol | –
108.45 K | – | 117.8 J/K/mol
110 K | 112.6 J/K/mol | 118.7 J/K/mol
110.12 K | 112.7 J/K/mol | –
110.14 K | 112.7 J/K/mol | –
110.41 K | – | 119 J/K/mol
112.1 K | 113.9 J/K/mol | –
112.17 K | 113.9 J/K/mol | –
112.38 K | – | 120.2 J/K/mol
114.07 K | 115 J/K/mol | –
114.22 K | 115.1 J/K/mol | –
114.35 K | – | 121.4 J/K/mol
116.04 K | 116.2 J/K/mol | –
116.28 K | 116.3 J/K/mol | –
116.32 K | – | 122.6 J/K/mol
118.01 K | 117.3 J/K/mol | –
118.29 K | – | 123.8 J/K/mol
118.34 K | 117.5 J/K/mol | –
119.98 K | 118.4 J/K/mol | –
120 K | 118.4 J/K/mol | 124.8 J/K/mol
120.27 K | – | 124.9 J/K/mol
120.41 K | 118.7 J/K/mol | –
121.96 K | 119.4 J/K/mol | –
122.24 K | – | 126.1 J/K/mol
122.48 K | 119.8 J/K/mol | –
123.94 K | 120.6 J/K/mol | –
124.22 K | – | 127.2 J/K/mol
124.56 K | 121 J/K/mol | –
125.91 K | 121.7 J/K/mol | –
126.2 K | – | 128.4 J/K/mol
126.63 K | 122.1 J/K/mol | –
127.9 K | 122.8 J/K/mol | –
128.18 K | – | 129.5 J/K/mol
128.72 K | 123.2 J/K/mol | –
129.88 K | 123.8 J/K/mol | –
130 K | 123.9 J/K/mol | 130.6 J/K/mol
130.17 K | – | 130.7 J/K/mol
130.8 K | 124.4 J/K/mol | –
131.86 K | 124.9 J/K/mol | –
132.15 K | – | 131.8 J/K/mol
132.89 K | 125.5 J/K/mol | –
133.84 K | 126 J/K/mol | –
134.14 K | – | 132.9 J/K/mol
134.99 K | 126.6 J/K/mol | –
135.84 K | 127 J/K/mol | –
136.13 K | – | 134 J/K/mol
137.08 K | 127.7 J/K/mol | –
137.83 K | 128 J/K/mol | –
138.12 K | – | 135.2 J/K/mol
139.18 K | 128.7 J/K/mol | –
139.83 K | 129.1 J/K/mol | –
140 K | 129.2 J/K/mol | 136.2 J/K/mol
140.12 K | – | 136.3 J/K/mol
141.28 K | 129.8 J/K/mol | –
141.83 K | 130.1 J/K/mol | –
142.11 K | – | 137.4 J/K/mol
143.39 K | 130.9 J/K/mol | –
143.83 K | 131.1 J/K/mol | –
144.11 K | – | 138.5 J/K/mol
145.49 K | 132 J/K/mol | –
145.83 K | 132.1 J/K/mol | –
146.11 K | – | 139.7 J/K/mol
147.6 K | 133 J/K/mol | –
